Experimental data: patent publication US11076595B2, “1-(n,n-disubstituted carbamoyl) 4-(substituted sulfonyl)triazolin-5-one derivative, 4-(n,n-disubstituted carbamoyl) 1-(substituted sulfonyl)triazolin-5-one derivative, and herbicide containing said derivative as active ingredient” (HOKKO CHEMICAL INDUSTRY CO., LTD., priority 2017, dated 2021)

Columns and labels:
Assay type in all cases: in vivo
Echinochloa crus-galli [1] = assay: Test Example 11: herbicidal effect test by soil treatment in paddy field; conditions: 120 g/10a active ingredient, 14 days after treatment
How it was run: (§1)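 Dry weight at day 14 relative to untreated controls gives the suppression rate; duplicate pots. Treatment: 120 g a.i./10 are into paddy water at sowing.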

Scirpus juncoides [2] = assay: as above; conditions: 120 g/10a active ingredient, 14 days after treatment
How it was run: as §1

Lindernia pyxidaria [3] = assay: as above; conditions: 120 g/10a active ingredient, 14 days after treatment
How it was run: as §1

Monochoria vaginalis [4] = assay: as above; conditions: 120 g/10a active ingredient, 14 days after treatment
How it was run: as §1

Echinochloa crus-galli [5] = assay: Test Example 12: herbicidal effect test by treatment during growing period in paddy field; conditions: 120 g/10a; treatment seven days after sowing in flooded paddy pot; assessed 14 days after treatment
Experimental: (§2) This test was performed with two replications per one formulation concentration plot, and 14 days after the formulation treatments, the weed suppression rate (%) was determined according to the following equation (Math. 2). Weed suppression rate (%)=(1−average dry weight (g) of plants in treated plots/average dry weight (g) of plants in untreated plots)×100 [Math. 2]
(§3) A Wagner pot having an area of 1/10000 are was filled with paddy field soil and after adding water, a chemical fertilizer (N:P:K=17:17:17) was mixed, followed by puddling. Thereafter, 30 grains of each of Echinochloa crus-galli, broad-leaved weed (Lindernia pyxidaria, Monochoria vaginalis) and Scirpus juncoides seeds were sown to a depth of 0 to 1 cm. Immediately after the sowing, the pot was flooded, and the depth of water was kept at about 3 cm. The pot was subsequently managed in a glass greenhouse. Seven Days after sowing, an emulsifiable concentrate prepared according to Formulation Example 15 by using the compound shown in Table 10 below was diluted with water, and a predetermined amount of the water-diluted formulation was added dropwise. The application rate of the active ingredient, by conversion, corresponded to 120 g per 10 are. The test was performed with two replications per one formulation concentration plot, and 14 days after the formulation treatments, the weed suppression rate (%) was determined according to the equation (Math. 2).

Scirpus juncoides [6] = assay: as above; conditions: 120 g/10a; treatment seven days after sowing in flooded paddy pot; assessed 14 days after treatment
Experimental: as §2, §3

Lindernia pyxidaria [7] = assay: as above; conditions: 120 g/10a; treatment seven days after sowing in flooded paddy pot; assessed 14 days after treatment
Experimental: as §2, §3

Monochoria vaginalis [8] = assay: as above; conditions: 120 g/10a; treatment seven days after sowing in flooded paddy pot; assessed 14 days after treatment
Experimental: as §2, §3

Compound | Weed suppression rate (%) Echinochloa crus-galli (Echinochloa crus-galli [1]) | Weed suppression rate (%) Scirpus juncoides (Scirpus juncoides [2]) | Weed suppression rate (%) Lindemia pyxidaria (Lindernia pyxidaria [3]) | Weed suppression rate (%) Monochoria vaginalis (Monochoria vaginalis [4]) | Weed suppression rate (%) Echinochloa crus-galli (Echinochloa crus-galli [5]) | Weed suppression rate (%) Scirpus juncoides (Scirpus juncoides [6]) | Weed suppression rate (%) Lindemia pyxidaria (Lindernia pyxidaria [7]) | Weed suppression rate (%) Monochoria vaginalis (Monochoria vaginalis [8])
CC(C)N(C(=O)n1cnn(S(=O)(=O)c2ccc(F)cc2)c1=O)c1cccc(F)c1F [Compound 11-474] | 100% | 100% | 100% | 100% | 100% | 100% | 100% | 90%
Cc1ccc(N(C(=O)n2cnn(S(=O)(=O)c3c(F)c(F)c(F)c(F)c3F)c2=O)C(C)C)c(F)c1 [Compound 11-825] | 90% | 90% | 80% | 80% | 90% | 90% | 80% | 80%
CC(C)N(C(=O)n1cnn(S(=O)(=O)C2CCCCC2)c1=O)c1ccc(C#N)cc1Cl [Compound 11-316] | 90% | 90% | 80% | 80% | 90% | 90% | 80% | 80%
CCN(C(=O)n1cnn(S(=O)(=O)c2ccccc2)c1=O)C1CCCCC1 [Compound 11-353] | 90% | 90% | 80% | 80% | 90% | 90% | 80% | 80%
CC(C)N(C(=O)n1cnn(S(=O)(=O)c2ccccc2Cl)c1=O)c1c(F)cc(F)cc1F [Compound 11-516] | 100% | 90% | 90% | 80% | 100% | 70% | 70% | 80%
CC(C)N(C(=O)n1cnn(S(=O)(=O)c2ccc(C(C)(C)C)cc2)c1=O)c1ccc(F)cc1Cl [Compound 11-689] | 90% | 70% | 90% | 70% | 60% | 90% | 70% | 80%
Cc1ccc(S(=O)(=O)n2ncn(C(=O)N(c3ccccc3F)C(C)C)c2=O)cc1 [Compound 11-627] | 90% | 90% | 80% | 80% | 90% | 90% | 80% | 80%
CC(C)N(C(=O)n1cnn(S(=O)(=O)c2cccs2)c1=O)c1c(F)c(F)cc(F)c1F [Compound 11-1027] | 100% | 100% | 100% | 90% | 100% | 100% | 80% | 90%
COc1ccc(S(=O)(=O)n2ncn(C(=O)N(c3ccc(F)c(F)c3F)C(C)C)c2=O)cc1 [Compound 11-1153] | 100% | 60% | 100% | 90% | 100% | 90% | 70% | 100%
CC(C)N(C(=O)n1cnn(S(=O)(=O)c2c(F)cccc2F)c1=O)c1c(F)cc(F)cc1F [Compound 11-777] | 100% | 100% | 90% | 80% | 90% | 70% | 70% | 80%
Cc1ccc(S(=O)(=O)n2ncn(C(=O)N(c3cccc(F)c3F)C(C)C)c2=O)cc1 [Compound 11-636] | 100% | 90% | 100% | 100% | 100% | 100% | 80% | 100%
O=C(N(CC(F)(F)F)c1ccc(F)cc1F)n1cnn(S(=O)(=O)C2CCCCC2)c1=O [Compound 11-1156] | 70% | 30% | 80% | 30% | 90% | 30% | 90% | 60%
CC(C)N(C(=O)n1cnn(S(=O)(=O)c2ccc(Cl)cc2)c1=O)c1c(F)cc(F)cc1F [Compound 11-592] | 100% | 80% | 100% | 90% | 100% | 80% | 80% | 100%
CC(C)N(C(=O)n1cnn(S(=O)(=O)c2ccc(C(C)(C)C)cc2)c1=O)c1cccc(F)c1F [Compound 11-681] | 100% | 100% | 90% | 80% | 100% | 100% | 90% | 100%
CC(C)N(C(=O)n1cnn(S(=O)(=O)c2ccc(C(C)(C)C)cc2)c1=O)c1ccc(Cl)cc1Br [Compound 11-694] | 90% | 70% | 80% | 70% | 70% | 80% | 60% | 70%
Cc1ccc(N(C(=O)n2cnn(S(=O)(=O)c3ccccc3Cl)c2=O)C(C)C)c(F)c1 [Compound 11-526] | 90% | 90% | 80% | 80% | 90% | 90% | 80% | 80%
CC(C)N(C(=O)n1cnn(S(=O)(=O)c2ccccc2Cl)c1=O)c1ccc(F)cc1Cl [Compound 11-519] | 100% | 100% | 100% | 70% | 80% | 80% | 70% | 70%
CC(C)N(C(=O)n1cnn(S(C)(=O)=O)c1=O)c1cccc(F)c1 [Compound 11-3] | 90% | 90% | 80% | 80% | 90% | 90% | 80% | 80%
